What was measured:
[1] = tested on: breast cancer; test: 96 hour continuous infusion every 21 days in breast cancer patients; conditions: 70-140 mg/M^2/96 hrs every 21 days
[2] = tested on: breast cancer; conditions: 24 hour infusion at 250 mg/M^2; similar breast cancer patient group; cited from earlier work
[3] = tested on: melanoma; conditions: 30 patients with melanoma; 250 mg/M^2 as 24 hour continuous infusion; cited from earlier work
[4] = tested on: patients; conditions: infusion times up to 24 hours; cited from earlier work
[5] = tested on: mammalian cells; conditions: actively dividing cells; cited from earlier work
[6] = tested on: diffuse large cell lymphoma; test: 96 hour continuous infusion every 21 days in lymphoma patients; type: in vivo, human; conditions: 70-140 mg/M^2/96 hrs every 21 days
Text: This 96 hr continuous infusion was repeated every 21 days, while patients were monitored for a response after every two cycles.

[7] = tested on: refractory acute leukemia; conditions: cited from earlier work
[8] = tested on: ovarian cancer; conditions: 34 patients with ovarian cancer; 250 mg/M^2 as 24 hour continuous infusion; cited from earlier work
[9] = 6 patients with diffuse large cell lymphoma

SMILES: CC(=O)O[C@H]1C(=O)[C@@]2(C)[C@H]([C@H](OC(=O)c3ccccc3)[C@]3(O)C[C@H](OC(=O)[C@H](O)[C@@H](NC(=O)c4ccccc4)c4ccccc4)C(C)=C1C3(C)C)[C@]1(OC(C)=O)CO[C@@H]1C[C@@H]2O [Taxol]
- number of minor remissions (MR) ([1]; 11 breast cancer patients): 2 patients
- number of partial remissions (PR) ([1]; 11 breast cancer patients): 7 patients
- partial remission rate ([1]; 11 breast cancer patients): 64%
- total response rate ([1]; 11 breast cancer patients): 82%
- patients with positive response (PR + MR) ([1]; breast cancer, prior doxorubicin or mitoxantrone regimen): 9 out of the 11
- response rate [2]: 33%
- objective response rate [3]: 13%
- dose limiting toxicity [4]: reversible myclosuppression
- Taxol concentration that usually causes a significant increase in microtubule number, changes in cell shape and mitotic arrest [5]: 50 Nm
- number of minor remissions (MR) [6, 9]: 1 patients
- number of partial remissions (PR) [6, 9]: 3 patients
- partial remission rate [6, 9]: 50%
- patients in whom Taxol was active (PR + MR) ([6]; diffuse large cell lymphoma): 4 out of 6
- toxicity limiting further dose escalation ([7]; 17 patients, 24 hour continuous infusion, 200 to 390 mg/M^2): Severe mucositis
- maximum tolerated dose ([7]; 17 patients, 24 hour continuous infusion, escalated from 200 to 390 mg/M^2): 390 mg/M^2
- patients with transient reductions in peripheral blood and bone marrow blasts ([7]; of 17 patients): Nine
- major toxicities [8]: neutropenia and peripheral neuropathy
- objective response rate [8]: 21%

From patent publication USRE40839E1 (The United States of America as represented by the …, priority 1992, dated 2009)
